Data from ChEMBL document CHEMBL1201862, “PubChem BioAssay data set” (2004).
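Briefly, cells in 96-well plates were exposed to five compound concentrations for 48 h, and endpoints were estimated by linear interpolation. Here, GI50 denotes the concentration required for 50% inhibition of growth.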 The source made the active and inactive calls. Cut-off read from the data, not from the text of the source: active = GI50 up to about 1.1 µM and inactive = higher.

Assays:
Assay in all cases: NCI tumour cell line growth inhibition, 48 h
OVCAR-5 = tested on: OVCAR-5
SF-295 = tested on: SF-295
MOLT-4 = tested on: MOLT-4
OVCAR-4 = tested on: OVCAR-4
HCC 2998 = tested on: HCC 2998
TK-10 = tested on: TK-10
ACHN = tested on: ACHN
NCI-H226 = tested on: NCI-H226
Hs-578T = tested on: Hs-578T
DU-145 = tested on: DU-145
MDA-MB-435 = tested on: MDA-MB-435
COLO 205 = tested on: COLO 205
CAKI-1 = tested on: CAKI-1
UACC-257 = tested on: UACC-257
HCT-116 = tested on: HCT-116
HOP-62 = tested on: HOP-62
MCF7 = tested on: MCF7
UACC-62 = tested on: UACC-62
NCI-H460 = tested on: NCI-H460
SK-MEL-5 = tested on: SK-MEL-5

Structure (SMILES)	GI50 (OVCAR-5)	GI50 (SF-295)	GI50 (MOLT-4)	GI50 (OVCAR-4)	GI50 (HCC 2998)	GI50 (TK-10)	GI50 (ACHN)	GI50 (NCI-H226)	GI50 (Hs-578T)	GI50 (DU-145)	GI50 (MDA-MB-435)	GI50 (COLO 205)	GI50 (CAKI-1)	GI50 (UACC-257)	GI50 (HCT-116)	GI50 (HOP-62)	GI50 (MCF7)	GI50 (UACC-62)	GI50 (NCI-H460)	GI50 (SK-MEL-5)
CCOC(=O)/C(C(=O)Nc1cccc(Cl)c1)=C(/N)N1CCOCC1	> 100 µM (inactive)	> 100 µM (inactive)	> 100 µM (inactive)	> 100 µM (inactive)	> 100 µM (inactive)	> 100 µM (inactive)	> 100 µM (inactive)	> 100 µM (inactive)	> 100 µM (inactive)	> 100 µM (inactive)	> 100 µM (inactive)	> 100 µM (inactive)	> 100 µM (inactive)	> 100 µM (inactive)	> 100 µM (inactive)	> 100 µM (inactive)	> 100 µM (inactive)	> 100 µM (inactive)	> 100 µM (inactive)	
[O-][n+]1onc(-c2ccccc2)c1CN1CCOCC1	> 100 µM (inactive)	> 100 µM (inactive)	23.3 µM (inactive)	10.4 µM (inactive)	> 100 µM (inactive)	> 100 µM (inactive)	> 100 µM (inactive)	> 100 µM (inactive)	68.1 µM (inactive)	> 100 µM (inactive)	> 100 µM (inactive)	> 100 µM (inactive)	> 100 µM (inactive)	> 100 µM (inactive)	> 100 µM (inactive)	> 100 µM (inactive)	> 100 µM (inactive)	68.1 µM (inactive)	> 100 µM (inactive)	> 100 µM (inactive)
Cc1cnc2nc(-c3cccc4ccccc34)cc(O)c2c1	0.00351 µM (active)	0.000887 µM (active)	0.000955 µM (active)	16.4 µM (inactive)	0.000723 µM (active)		0.00119 µM (active)	0.01 µM (active)	0.00107 µM (active)	0.00394 µM (active)	0.000211 µM (active)	0.000708 µM (active)	0.000646 µM (active)	0.000254 µM (active)	0.000652 µM (active)	0.0248 µM (active)	0.00121 µM (active)	0.000518 µM (active)	0.00303 µM (active)	0.000359 µM (active)
COc1ccccc1/C=C1\CCC(Cc2ccccc2)(CN(C)C)C1=O (stereo not drawn)	14.5 µM (inactive)	1.34 µM (inactive)	1.05 µM (active)	17.8 µM (inactive)	3.13 µM (inactive)	5.96 µM (inactive)	12.6 µM (inactive)	23.6 µM (inactive)	0.834 µM (active)	7.93 µM (inactive)	1.07 µM (active)	1.37 µM (inactive)	2.38 µM (inactive)	12.3 µM (inactive)	0.406 µM (active)	11.6 µM (inactive)	0.292 µM (active)	1.28 µM (inactive)	0.698 µM (active)	1.85 µM (inactive)
C(=C\c1cccs1)/c1cccc(/C=C/c2cccs2)n1	> 100 µM (inactive)	> 100 µM (inactive)	> 100 µM (inactive)	12.4 µM (inactive)	56.9 µM (inactive)	34.9 µM (inactive)	8.11 µM (inactive)	> 100 µM (inactive)	2.58 µM (inactive)	> 100 µM (inactive)	> 100 µM (inactive)	32.1 µM (inactive)	> 100 µM (inactive)	> 100 µM (inactive)	> 100 µM (inactive)	83 µM (inactive)	3.55 µM (inactive)	> 100 µM (inactive)	36.4 µM (inactive)	> 100 µM (inactive)
c1ccc(C2(c3cc4ccccc4[nH]3)OCCO2)nc1	> 100 µM (inactive)	> 100 µM (inactive)		> 100 µM (inactive)	> 100 µM (inactive)	> 100 µM (inactive)	> 100 µM (inactive)	> 100 µM (inactive)	> 100 µM (inactive)	> 100 µM (inactive)	> 100 µM (inactive)	> 100 µM (inactive)	> 100 µM (inactive)	> 100 µM (inactive)	> 100 µM (inactive)	> 100 µM (inactive)	> 100 µM (inactive)	> 100 µM (inactive)	> 100 µM (inactive)	> 100 µM (inactive)
CC(=O)N1c2ccccc2C2=NN(C)C(=N)SC21 (stereo not drawn)	> 100 µM (inactive)	50.4 µM (inactive)	> 100 µM (inactive)	> 100 µM (inactive)	> 100 µM (inactive)	> 100 µM (inactive)	> 100 µM (inactive)	> 100 µM (inactive)	> 100 µM (inactive)	> 100 µM (inactive)	89.3 µM (inactive)	> 100 µM (inactive)		> 100 µM (inactive)	> 100 µM (inactive)	> 100 µM (inactive)	> 100 µM (inactive)		> 100 µM (inactive)	
C=C(C)CNC(=S)N(N)c1ccc2ccccc2c1	27.7 µM (inactive)	94.2 µM (inactive)	> 100 µM (inactive)	> 100 µM (inactive)	47.3 µM (inactive)	23.6 µM (inactive)	34.5 µM (inactive)	> 100 µM (inactive)	> 100 µM (inactive)	> 100 µM (inactive)	72.3 µM (inactive)	> 100 µM (inactive)		> 100 µM (inactive)	> 100 µM (inactive)	> 100 µM (inactive)	26.5 µM (inactive)	23.9 µM (inactive)	> 100 µM (inactive)	> 100 µM (inactive)
COC1OC(COC(=O)NCCCCC(=O)C(F)(F)F)C(O)C(O)C1O (stereo not drawn)	> 100 µM (inactive)	> 100 µM (inactive)	> 100 µM (inactive)	> 100 µM (inactive)	> 100 µM (inactive)	> 100 µM (inactive)	> 100 µM (inactive)		> 100 µM (inactive)	> 100 µM (inactive)	> 100 µM (inactive)	> 100 µM (inactive)	> 100 µM (inactive)	> 100 µM (inactive)	> 100 µM (inactive)	> 100 µM (inactive)	> 100 µM (inactive)	> 100 µM (inactive)	> 100 µM (inactive)	> 100 µM (inactive)
CC(=O)Nc1ccc(NNc2cc(=O)n(C)c(=O)[nH]2)cc1	14.1 µM (inactive)	15.8 µM (inactive)	34.8 µM (inactive)	10.2 µM (inactive)	11.4 µM (inactive)	23.2 µM (inactive)	2.91 µM (inactive)	22.4 µM (inactive)	25.6 µM (inactive)	16 µM (inactive)	10.3 µM (inactive)	11.8 µM (inactive)		13.5 µM (inactive)	4.33 µM (inactive)	15.1 µM (inactive)	5.57 µM (inactive)		17.1 µM (inactive)	16.7 µM (inactive)
COc1cc(/C=C2\N=C(c3ccccc3)N(c3nc4cc(C)c(C)cc4s3)C2=O)ccc1O	40.6 µM (inactive)	66.8 µM (inactive)	2.75 µM (inactive)	20.7 µM (inactive)	27 µM (inactive)	79.4 µM (inactive)	28.3 µM (inactive)		30.8 µM (inactive)	61.7 µM (inactive)	12.6 µM (inactive)	40.1 µM (inactive)	36.6 µM (inactive)	21.3 µM (inactive)	19.3 µM (inactive)	74.1 µM (inactive)	11.2 µM (inactive)	26.6 µM (inactive)	27.4 µM (inactive)	31.3 µM (inactive)
COc1cc(C=O)cc(/C=N/n2c3ccccc3c3ccccc32)c1O	45.1 µM (inactive)	3.17 µM (inactive)	16.9 µM (inactive)	74 µM (inactive)	19.3 µM (inactive)	36.9 µM (inactive)	6.12 µM (inactive)	6.3 µM (inactive)	6.81 µM (inactive)	> 100 µM (inactive)	4.05 µM (inactive)	18.8 µM (inactive)	31.8 µM (inactive)	26.8 µM (inactive)	10.9 µM (inactive)	30.3 µM (inactive)	3.78 µM (inactive)	6.67 µM (inactive)	30.5 µM (inactive)	
O=C1CN(/N=C/c2ccc(-c3ccc(F)cc3)o2)C(=O)N1	> 100 µM (inactive)	55.7 µM (inactive)	91.4 µM (inactive)		80.9 µM (inactive)	69.2 µM (inactive)	> 100 µM (inactive)	32.2 µM (inactive)	45.5 µM (inactive)	> 100 µM (inactive)	18.5 µM (inactive)	29.7 µM (inactive)	58.6 µM (inactive)	21.8 µM (inactive)	50.8 µM (inactive)	> 100 µM (inactive)	49.1 µM (inactive)	45.5 µM (inactive)	45.2 µM (inactive)	26.4 µM (inactive)
C=C1CC23CCC4C(C)(C(=O)O)CCCC4(C)C2CCC1C3 (stereo not drawn)	95.3 µM (inactive)	35.3 µM (inactive)		58.5 µM (inactive)	17.1 µM (inactive)	38.4 µM (inactive)	36.5 µM (inactive)	55.7 µM (inactive)	44.3 µM (inactive)	65.3 µM (inactive)	62.1 µM (inactive)	19.7 µM (inactive)	22.3 µM (inactive)	36.8 µM (inactive)	32.7 µM (inactive)	> 100 µM (inactive)	47.3 µM (inactive)	52.4 µM (inactive)	21 µM (inactive)	
COC1(OC)CCCCCCCCC(OC)(OC)CCCCCCCC1	> 100 µM (inactive)	> 100 µM (inactive)			> 100 µM (inactive)	> 100 µM (inactive)	> 100 µM (inactive)	> 100 µM (inactive)	> 100 µM (inactive)	> 100 µM (inactive)	> 100 µM (inactive)	> 100 µM (inactive)	> 100 µM (inactive)	> 100 µM (inactive)	> 100 µM (inactive)	> 100 µM (inactive)	> 100 µM (inactive)	> 100 µM (inactive)	> 100 µM (inactive)	> 100 µM (inactive)
